Data: PMC11762957, “Rescue of Mutant CFTR Channel Activity by Investigational Co-Potentiator Therapy” (Biomedicines, 2025)

Tests used:
p.Gly1349Asp-CFTR = biological target: T1, p.Gly1349Asp-CFTR (Homo sapiens, UniProt P13569, G1349D); test: HS-YFP assay, CFBE41o- cells transiently transfected with p.Gly1349Asp-CFTR; assay type: cell-based; details: Fsk 5 μM
T1 construct: expressed in transfected cells; host or cells: CFBE41o- cells stably expressing HS-YFP, transient transfection of pcDNA5-CFTR
T1 sequence (P13569 whole entry G1349D): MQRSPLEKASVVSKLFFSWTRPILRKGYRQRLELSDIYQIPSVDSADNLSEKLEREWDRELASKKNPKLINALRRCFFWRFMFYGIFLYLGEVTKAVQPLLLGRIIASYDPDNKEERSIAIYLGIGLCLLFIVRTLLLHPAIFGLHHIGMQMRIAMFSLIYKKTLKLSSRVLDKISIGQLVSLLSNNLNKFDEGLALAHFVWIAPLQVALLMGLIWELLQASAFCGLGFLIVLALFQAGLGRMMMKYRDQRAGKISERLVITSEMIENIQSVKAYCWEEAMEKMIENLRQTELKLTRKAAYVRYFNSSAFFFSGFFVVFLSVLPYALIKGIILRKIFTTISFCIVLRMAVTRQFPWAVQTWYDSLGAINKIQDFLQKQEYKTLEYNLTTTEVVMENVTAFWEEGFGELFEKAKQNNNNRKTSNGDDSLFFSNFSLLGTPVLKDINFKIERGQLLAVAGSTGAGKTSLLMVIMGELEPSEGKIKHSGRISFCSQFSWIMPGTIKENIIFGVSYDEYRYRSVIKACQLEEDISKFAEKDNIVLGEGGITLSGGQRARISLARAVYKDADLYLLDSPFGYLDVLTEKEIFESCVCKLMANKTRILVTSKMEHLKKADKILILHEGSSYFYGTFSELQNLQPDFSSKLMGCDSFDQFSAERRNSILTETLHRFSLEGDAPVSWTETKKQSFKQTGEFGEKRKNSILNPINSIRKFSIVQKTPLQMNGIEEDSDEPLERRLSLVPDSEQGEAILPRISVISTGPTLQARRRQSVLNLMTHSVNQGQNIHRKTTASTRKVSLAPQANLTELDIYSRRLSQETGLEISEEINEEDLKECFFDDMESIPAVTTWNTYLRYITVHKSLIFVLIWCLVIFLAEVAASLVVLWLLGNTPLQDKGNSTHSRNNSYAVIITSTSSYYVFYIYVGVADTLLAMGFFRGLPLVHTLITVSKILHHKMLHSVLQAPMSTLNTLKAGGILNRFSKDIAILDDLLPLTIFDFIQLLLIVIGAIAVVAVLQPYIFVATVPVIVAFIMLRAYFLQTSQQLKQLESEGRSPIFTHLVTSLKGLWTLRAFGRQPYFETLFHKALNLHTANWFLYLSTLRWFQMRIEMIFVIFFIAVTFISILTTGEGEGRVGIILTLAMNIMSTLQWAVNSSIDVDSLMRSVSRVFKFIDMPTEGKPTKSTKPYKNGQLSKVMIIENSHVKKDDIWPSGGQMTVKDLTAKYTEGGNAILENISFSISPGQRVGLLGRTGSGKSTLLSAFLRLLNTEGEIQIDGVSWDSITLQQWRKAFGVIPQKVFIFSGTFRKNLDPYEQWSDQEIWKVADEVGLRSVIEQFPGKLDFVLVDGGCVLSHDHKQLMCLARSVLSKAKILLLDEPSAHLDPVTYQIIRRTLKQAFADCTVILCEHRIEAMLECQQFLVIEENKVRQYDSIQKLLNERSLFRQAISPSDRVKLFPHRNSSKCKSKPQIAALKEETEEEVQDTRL
Experimental: Site-directed mutagenesis was performed using KOD HOT start DNA polymerase (#71086-3, Sigma-Aldrich, St. Louis, MO, USA), according to manufacturer’s instructions, to insert variants under study (c.613C>T or p.Pro205Ser; c.1645A>C or p.Ser549Arg; c.1647T>G or p.Ser549Arg; c.1652G>A or p.Gly551Asp; c.2834C>T or p.Ser945Leu; and c.4046G>A or p.Gly1349Asp) into CFTR cDNA cloned in the pcDNA5 expression vector. After confirmation by Sanger sequencing, CFBE41o^− cells expressing HS-YFP seeded onto 96-well plates were transfected with 0.1 µg per well of the indicated plasmid. Lipofectamine 3000 (#L3000015, ThermoFischer Scientific, Waltham, MA, USA) was used as the transfection agent diluted in Opti-MEM reduced serum medium (#31985070, ThermoFischer Scientific, Waltham, MA, USA) according to manufacturer’s instructions.
(§1) CFTR activity was determined by the HS-YFP microfluorimetric assay (described in detail in previous studies) using CFBE41o^− cells expressing HS-YFP together with stably expressed p.Arg334Trp-CFTR or transiently transfected with CFTR cDNA (variants p.Pro205Ser, p.Ser549Arg, p.Gly551Asp, p.Ser945Leu, and p.Gly1349Asp) cloned into pcDNA5. Briefly, cells were washed with phosphate-buffered saline (PBS; in mM: 137 NaCl, 2.7 KCl, 8.1 Na2HPO4, 1.5 KH2PO4, 1 CaCl2, and 0.5 MgCl2) and then incubated for 30 min at 37 °C with 60 μL of PBS plus Fsk (5 μM) and test compound(s) to stimulate CFTR channels. DMSO (vehicle) and VX-770 (1 μM) were used as negative and positive controls, respectively. All conditions were performed in triplicate on each plate. Thereafter, cells were transferred to a microplate reader (Tecan Infinite 200 Pro) equipped with high-quality excitation (485 ± 20 nm) and emission (535 ± 25 nm) filters for YFP. Each reading consisted of a continuous 14 s fluorescence recording with 2 s before and 12 s after injection of 165 μL of an iodide-containing solution (PBS with Cl^− replaced by I^−; final I^− concentration: 100 mM). Data were normalized to the initial background-subtracted fluorescence. To determine the I^− influx rate, the final 11 s of the data for each well were fitted with an exponential function to extrapolate the initial slope (dF/dt).
As CFTR variants with similar defect(s) may respond differently to the same treatment(s), we assessed whether LSO-24 or its derivative LSO-150, alone or in combination(s), could rescue CFTR activity for other variants with gating/conductance defects. […] After 24 h, the cells were acutely stimulated with Fsk plus test compound(s), and the cell fluorescence was recorded before and after the addition of an I^−-containing solution. […]

p.Arg334Trp-CFTR = biological target: T2, p.Arg334Trp-CFTR (Homo sapiens, UniProt P13569, R334W); test: HS-YFP assay on a plate reader (CFTR-mediated I- influx), CFBE41o- cells co-expressing HS-YFP and p.Arg334Trp-CFTR; assay type: cell-based
T2 construct: expressed in transfected cells
T2 sequence (P13569 whole entry R334W): as the sequence (P13569 whole entry G1349D) above, with R334W, D1349G counted along it
Experimental: Parental CFBE41o^− cells stably expressing HS-YFP (p.His148Gln-Ile152Leu) were cultured in minimum essential medium (MEM, #10-010-CV, Corning, VA, USA) supplemented with 10% fetal bovine serum (#LTI 10270-106, Gibco, Carlsbad, CA, USA). CFBE41o^− cells stably co-expressing HS-YFP (p.Phe46Leu-His148Gln-Ile152Leu) and p.Arg334Trp-CFTR were cultured in a similar medium including 2 µg mL^−1 puromycin (#P8833, Sigma-Aldrich, St. Louis, MO, USA). For the YFP assay of CFTR activity, cells were plated (30,000 cells/well) on 96-well clear-bottom, black-walled microplates (#655090, Greiner Bio-One, Kremsmünster, Austria). All cells were maintained in a humidified incubator (5% CO2) at 37 °C.
as §1
All the compounds (Scheme 1) were tested in CFBE41o^− cells co-expressing HS-YFP and p.Arg334Trp-CFTR to assess CFTR-mediated I^− influx based on fluorescence quenching. The cells were incubated for 30 min with Fsk (an adenyl cyclase activator that increases intracellular cAMP levels) plus the test compounds in two different concentrations (3 and 20 μM). Thereafter, the efficacy of the compounds in rescuing CFTR activity was determined by the YFP quenching rate and normalized to DMSO (negative control). […] Such an increase was equivalent to that of the cells treated with VX-770 or apigenin (used as positive controls).
Next, the active compounds were submitted for further analysis for evaluation of their potency and efficacy. To this aim, the compounds were retested as potentiators at various concentrations in the range 0.16–30 μM with Fsk on CFBE41o^− cells.

**Q.** Which “Fluorescence quenching rate, effect in combination(s) with VX-770 or ABBV-3067” value (p.Gly1349Asp-CFTR; LSO-24 5 μM or LSO-150 3 μM added to VX-770 1 μM or ABBV-3067 10 μM) does the source give for `CCOC(=O)c1ccc(-n2cc(C(O)c3ccc(Br)cc3)nn2)cc1` (centres unmarked) [LSO-150] here?
**A.** no effect

**Q.** What about the “Fluorescence quenching rate, single compound” value (p.Gly1349Asp-CFTR; LSO-24 5 μM, LSO-150 3 μM, VX-770 1 μM, ABBV-3067 10 μM) of the same compound?
**A.** no effect

**Q.** And the EC50 (p.Arg334Trp-CFTR; CFBE41o- cells, with Fsk, concentrations 0.16–30 μM, read-out: EC50 (potentiation of p.Arg334Trp-CFTR activity))?
**A.** 1.01 µM

**Q.** What about the “Fluorescence quenching rate in combination with ABBV-974” value (p.Arg334Trp-CFTR; LSO-150 3 μM or LSO-153 5 μM + ABBV-974 10 μM, Fsk 5 μM, vs single potentiator) of the same compound?
**A.** further increase in the fluorescence quenching rate

**Q.** And the “Fluorescence quenching rate in combination with ABBV-3067” value (p.Arg334Trp-CFTR; LSO-150 3 μM or LSO-153 5 μM + ABBV-3067 10 μM, Fsk 5 μM, vs single potentiator)?
**A.** further increase in the fluorescence quenching rate

**Q.** What about the “Fluorescence quenching rate in combination with VX-770” value (p.Arg334Trp-CFTR; LSO-150 3 μM or LSO-153 5 μM + VX-770 1 μM, Fsk 5 μM, vs single potentiator) of the same compound?
**A.** further increase in the fluorescence quenching rate

**Q.** And the “Fluorescence quenching rate in combination with apigenin” value (p.Arg334Trp-CFTR; LSO-150 3 μM or LSO-153 5 μM + apigenin 50 μM, Fsk 5 μM, vs single potentiator)?
**A.** equivalent cell-fluorescence quenching rate to that of each compound individually

**Q.** And the “CFTR-mediated I- influx (YFP quenching rate normalized to DMSO)” value (p.Arg334Trp-CFTR; test compound 3 and 20 μM, 30 min with Fsk 5 μM, vs DMSO)?
**A.** increase in CFTR-mediated I^− influx
